Source: patent publication US20260055079A1, “PHTHALAZINONE COMPOUNDS AS PARP7 INHIBITORS” (AZKARRA THERAPEUTICS, INC., priority 2022, published 2026)

Tests used:
HiBiT-PARP7 = HiBiT-PARP7 (Mus musculus (Mouse), UniProt Q8C1B2); test: Nuclear PARP7 immunofluorescence in HiBiT-PARP7 knockin CT-26 cells; type: cell-based; details: HiBiT-PARP7 KI CT-26 cells, 300 nM, 18 h
endogenous PARP7 = endogenous PARP7 (Mus musculus (Mouse), UniProt Q8C1B2); test: Endogenous PARP7 protein levels in CT-26 cells (western blot); type: cell-based
[1] = tested on: STAT1 and STAT1 Tyr701 phosphorylation (pSTAT1); test: STAT1 and pSTAT1 (Tyr701) western blot in CT-26 cells; type: cell-based, mouse; details: increasing concentrations, 16 h
PARP7 [2] = target: T1, PARP7 (Mus musculus (Mouse), UniProt Q8C1B2); test: Cell fractionation and PARP7 Western blot in CT-26 cells; type: cell-based; details: 300 nM, 18 h, fractionation
IFN-β = IFN-β ELISA in CT-26 cells; type: cell-based; details: 300 nM, 16 h, with or without STING inhibitor H-151 (500 nM)
Experimental: (§1) FIG. 4B provides of Western blots in FIG. 4A. Quantification was performed using BioRad ImageLab software. Curves were fit using four parameter nonlinear regression in GraphPad Prism. STAT1 and pSTAT1 levels were normalized to tubulin. Data was from 3 biological replicates. […] Treatment was as in FIG. 4A. Note: tubulin blot was the same as in FIG. 4A since samples were run on the same nitrocellulose membrane for western blot analysis. SE=short exposure; LE=long exposure. […] Treatment was as in FIG. 4A. Note: tubulin blot is the same as in FIG. 4A since samples were run on the same nitrocellulose membrane for western blot analysis. […] Quantification was performed using BioRad ImageLab software. Curves fitting was done using a four parameter nonlinear regression in GraphPad Prism. PARP7 levels were normalized to tubulin. Data was from 3 biological replicates. […] IFN-0 levels were determined by ELISA (PBL Assay Science). Statistical analysis was performed as one-way ANOVA in GraphPad Prism. ****=p<0.001. […] Luciferase levels were measured using a luciferase assay reagent (Promega).

[3] = tested on: type I interferon reporter; test: IRSE luciferase reporter in CT-26 cells; type: cell-based; details: CT-26 cells stably expressing IRSE luciferase reporter, 16 h
Experimental: as §1

PARP7 [4] = target: T1, PARP7; test: PARP7 protein levels Western blot in CT-26 cells; type: cell-based
Experimental: as §1, with “(Promega). […] Treatment was same as in FIG. 10A. Note: tubulin blot is the same as in FIG. 10A since samples were run on the same nitrocellulose membrane for western blot analysis. […] Treatment was same as in FIG. 10A. […] Proteins were detected by Western blot using specific antibodies.” for “(Promega).”

NCI-H1373 cells [5] = test: Cell Titer-Glo viability assay in NCI-H1373 cells; type: cell-based; details: 6 d treatment, increasing concentrations
From the text: Curves were fit using three parameter a nonlinear regression in GraphPad Prism.

GFP-PARP7 = GFP-PARP7 (Homo sapiens (Human), UniProt Q7Z3E1); test: Live cell imaging of GFP-PARP7 in HeLa cells; type: cell-based; details: HeLa cells overexpressing GFP-PARP7 and mRuby2-Nup90, 300 nM
NCI-H1373 cells [6] = test: Cell Titer-Glo viability, NCI-H1373; type: cell-based; details: Homo sapiens, NCI-H1373, 144 h; 6 days, CellTiter-Glo
Experimental: NCI-H1373 cells were seeded in a white 96-well plate (Corning) at a density of 1,000 cells per well. After 24 hours, cells were treated with PARP7 inhibitors and incubated at 37° C. for 6 days. Cell viability was assessed using CellTiter-Glo (CTG) 2.0 (Promega). After addition of the CTG reagent (following manufacturer protocol), the plate was incubated on an orbital shaker for 15 min (protected from light) at room temperature. Chemiluminescence was measured on a Spectra Max i3 (Molecular Devices), normalized to DMSO-treated wells, and IC50 values were calculated by non-linear regression (three-parameter fit) analysis using Prism 9 (GraphPad).

[7] = tested on: STAT1 and phosphor-Tyr701-STAT1 (pSTAT1); test: STAT1 and pSTAT1 Western blot in CT-26 cells; type: cell-based
Experimental: as §1, with “(Promega). […] Treatment was same as in FIG. 10A. Note: tubulin blot is the same as in FIG. 10A since samples were run on the same nitrocellulose membrane for western blot analysis. […] Treatment was same as in FIG. 10A. […] Proteins were detected by Western blot using specific antibodies.” for “(Promega).”

STING = STING degradation and signaling Western blot in CT-26 cells; type: cell-based
Experimental: as §1, with “(Promega). […] Treatment was same as in FIG. 10A. Note: tubulin blot is the same as in FIG. 10A since samples were run on the same nitrocellulose membrane for western blot analysis. […] Treatment was same as in FIG. 10A. […] Proteins were detected by Western blot using specific antibodies.” for “(Promega).”

[8] = tested on: interferon-sensitive response element (ISRE)-firefly luciferase; test: ISRE luciferase assay, ISRE-Luc CT-26 cells; type: cell-based, mouse; details: 16 h, saturating doses
Experimental: 10,000 ISRE-Luc CT-26 or WT CT-26 cells were seeded into wells of a white 96-well plate and grown overnight. Compounds were serial diluted at 1000× concentration in DMSO. For dosing, compound dose response curves were dilute 1:100 in culture media, then added at 1:10 dilution to cell culture. Final DMSO concentration was 0.1%. Cells were incubated in treatment for 18 hours. Following treatment, the plates were developed using ONE-Glo Luciferase Assay system (Promega) per manufacturer directions. The luminescence signal was read on a Spectra Max i3 (Molecular Devices) plate reader with a 2 second integration time. WT CT-26 signal was background subtracted and curves were fit using a four-parameter […] regression in GraphPad Prism 9.

secreted IFN-β = test: Interferon-β ELISA, CT-26 cells; type: cell-based, mouse; details: saturating doses
Experimental: CT-26 cells were seeded into a 6-well plate. After 24 h, the growth media was replaced, and cells were treated with inhibitors. After treatment, growth media was harvested and assayed with PBL Verikine Mouse IFN-β ELISA kit following the manufacturer protocol.

[9] = increasing concentrations, 16 h

Sequence of endogenous PARP7 (Q8C1B2 whole entry): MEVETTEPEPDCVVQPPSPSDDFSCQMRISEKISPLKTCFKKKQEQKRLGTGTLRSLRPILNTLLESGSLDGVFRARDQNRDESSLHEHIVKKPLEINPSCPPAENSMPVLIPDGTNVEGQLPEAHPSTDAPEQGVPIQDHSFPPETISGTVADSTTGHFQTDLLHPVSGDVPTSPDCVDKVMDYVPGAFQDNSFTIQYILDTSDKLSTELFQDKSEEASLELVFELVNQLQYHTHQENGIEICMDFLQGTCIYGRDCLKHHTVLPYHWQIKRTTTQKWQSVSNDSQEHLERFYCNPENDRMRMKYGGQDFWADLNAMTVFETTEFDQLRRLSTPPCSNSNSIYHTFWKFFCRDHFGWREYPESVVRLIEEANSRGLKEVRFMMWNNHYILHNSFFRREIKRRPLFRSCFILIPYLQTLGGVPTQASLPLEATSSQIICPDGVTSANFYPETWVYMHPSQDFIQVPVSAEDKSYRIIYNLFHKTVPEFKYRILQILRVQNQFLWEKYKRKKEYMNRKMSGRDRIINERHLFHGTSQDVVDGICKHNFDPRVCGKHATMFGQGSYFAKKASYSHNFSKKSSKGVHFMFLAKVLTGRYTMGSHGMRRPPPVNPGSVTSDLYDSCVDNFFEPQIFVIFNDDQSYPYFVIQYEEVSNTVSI
Sequence of HiBiT-PARP7 (Q8C1B2 whole entry): as above
Sequence of GFP-PARP7 (Q7Z3E1 whole entry): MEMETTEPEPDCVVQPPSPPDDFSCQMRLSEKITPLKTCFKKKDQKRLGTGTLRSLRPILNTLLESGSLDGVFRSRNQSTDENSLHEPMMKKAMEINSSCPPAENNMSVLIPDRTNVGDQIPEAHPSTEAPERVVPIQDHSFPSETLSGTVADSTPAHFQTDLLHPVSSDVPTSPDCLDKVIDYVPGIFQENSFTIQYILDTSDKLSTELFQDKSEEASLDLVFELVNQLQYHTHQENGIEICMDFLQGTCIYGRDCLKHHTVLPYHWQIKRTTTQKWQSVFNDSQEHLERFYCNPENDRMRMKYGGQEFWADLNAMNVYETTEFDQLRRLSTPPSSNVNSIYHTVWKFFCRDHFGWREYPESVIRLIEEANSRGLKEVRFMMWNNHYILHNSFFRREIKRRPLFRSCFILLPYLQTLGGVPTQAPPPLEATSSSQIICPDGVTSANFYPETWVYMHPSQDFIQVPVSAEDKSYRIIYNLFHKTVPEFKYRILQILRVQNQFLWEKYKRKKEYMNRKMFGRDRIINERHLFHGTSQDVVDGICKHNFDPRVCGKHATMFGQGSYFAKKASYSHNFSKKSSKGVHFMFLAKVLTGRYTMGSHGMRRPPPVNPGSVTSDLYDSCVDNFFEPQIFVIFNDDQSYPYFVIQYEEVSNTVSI

nuclear PARP7 protein levels (HiBiT-PARP7): increases nuclear PARP7 protein levels
endogenous PARP7 levels (endogenous PARP7): increased PARP7 levels
increase in PARP7 protein abundance compared to Example 10 (endogenous PARP7; saturating doses): 2 fold
time to detectable increase in nuclear PARP7 levels (GFP-PARP7): ≤ 30 min
EC50 (NCI-H1373 cells [6]): 17.8 nM
Structure (SMILES): C[C@@H](COCCC(=O)N1CCN(c2ncc(C(F)(F)F)cn2)CC1)Nc1cn[nH]c(=O)c1C(F)(F)F [RBN-2397]
STAT1 and pSTAT1 levels [1]: dose-dependently increased STAT1 and pSTAT1 levels
subcellular localisation of PARP7 (PARP7 [2]): PARP7 levels were only detected in nucleus
IFN-β levels (IFN-β): increase IFN-β levels in a STING-dependent manner
type I interferon reporter levels [3]: increase type I interferon reporter levels in a dose dependent manner
PARP7 levels, time dependence (PARP7 [4]; 300 nM): increase PARP7 levels in a time-dependent manner
PARP7 levels, dose dependence (PARP7 [4]; [9]): increase PARP7 levels in a dose-dependent manner
cell viability (NCI-H1373 cells [5]): decreases viability
STAT1 and pSTAT1 levels, time dependence ([7]; 300 nM): increase STAT1 and pSTAT1 in a time-dependent manner
STAT1 and pSTAT1 levels, dose dependence [7, 9]: increase STAT1 and phosphor-Tyr701-STAT1 (pSTAT1) in a dose-dependent manner
STING and pIRF3 levels, time dependence (STING; 300 nM): decrease STING levels and increase pIRF3 levels in a time-dependent manner
STING degradation and signaling (STING; [9]): induced STING degradation and signaling, but not to the same extent as a STING agonist
magnitude of ISRE-Luc response compared to Example 10 [8]: ~2 fold
levels of secreted IFN-β (secreted IFN-β): increased significantly the levels of secreted IFN-β to a greater extent than Example 10
